Values quoted from earlier work in patent US20200093158A1, “COMPOSITIONS AND COMBINATIONS FOR USE AS FOOD SUPPLEMENTS FOR ANIMALS” (OmniGen Research, LLC, priority 2014, published 2020).

Legend:
[1] = 71.5 parts per million in diet for 8 weeks; 72 hours ammonia at 0.02, 0.2, 2 ppm (not at 20 ppm); vs control shrimp
larvae of common carp = conditions: 1.76 parts per million of NH3, after 24 hours
[2] = test system: turbot (Scophthalmus maximus) juveniles

SMILES	survival rates under ammonia exposure [1]	mortality (larvae of common carp) [%]	physiological disturbances ([2]; adapted small turbot, up to 0.4-0.5 parts per million)	mortalities ([2]; turbot juveniles, 4-6 weeks, up to 0.4 parts per million unionized ammonia, 16.5-17.5° C., pH 7.92-8.03)
CC1=C(/C=C/C(C)=C/C=C/C(C)=C/C=C/C=C(C)/C=C/C=C(C)/C=C/C2=C(C)C(=O)[C@@H](O)CC2(C)C)C(C)(C)C[C@H](O)C1=O [astaxanthin]	higher	–	–	–
N [NH3, ammonia]	–	50	no major physiological disturbances	no mortalities
